Our source for the IC50 values is PubChem BioAssay AID624167 (Sanford-Burnham Center for Chemical Genomics, 2012).

Test [1] addresses PEG-3 (UniProt Q6IN02). In words: inhibition of PEG-3 promoter-driven reporter – cell-based, HeLa, luciferase, CREF/GAPDH counter-screen panel, dose response (AID 624167). The following applies: HeLa PEG-Prom luciferase reporter, overnight, CREF/GAPDH counter-screens, mean of runs. On the technique in general: The purpose of a counterscreen is to sort out artefacts and off-target activity.

In test [2] the test system is PEG-3. The test is described as above. The following applies: HeLa PEG-Prom luciferase reporter, overnight, CREF/GAPDH counter-screens. In general terms: In a reporter assay the amount or activity of a reporter protein is the signal.
The next test relates to Rat fibroblasts (CREF). The description is as above. The following applies: CREF/GAPDH counter-screens.
The subject of the next test is GAPDH. Described as above. The following applies: CREF/GAPDH counter-screens.
Experiment in test [3]: as above
To be noted: CREF/GAPDH counter-screens; GAPDH; mean of runs.

The mark [4] stands for this setting: run 1, dose range 1, individual replicate IC50 per panel.
[5] abbreviates: run 2, dose range 1, individual replicate IC50 per panel.

Activity calls are given as the source filed them.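 How the source made its calls: active means mean IC50 for reducing PEG3 promoter reporter signal at or below a set limit, with IC50 above the limit in both counter screens; inactive means the rest, including counter screen hits.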

Chain of PEG-3 (UniProt Q6IN02) (Q6IN02 whole entry, looked up): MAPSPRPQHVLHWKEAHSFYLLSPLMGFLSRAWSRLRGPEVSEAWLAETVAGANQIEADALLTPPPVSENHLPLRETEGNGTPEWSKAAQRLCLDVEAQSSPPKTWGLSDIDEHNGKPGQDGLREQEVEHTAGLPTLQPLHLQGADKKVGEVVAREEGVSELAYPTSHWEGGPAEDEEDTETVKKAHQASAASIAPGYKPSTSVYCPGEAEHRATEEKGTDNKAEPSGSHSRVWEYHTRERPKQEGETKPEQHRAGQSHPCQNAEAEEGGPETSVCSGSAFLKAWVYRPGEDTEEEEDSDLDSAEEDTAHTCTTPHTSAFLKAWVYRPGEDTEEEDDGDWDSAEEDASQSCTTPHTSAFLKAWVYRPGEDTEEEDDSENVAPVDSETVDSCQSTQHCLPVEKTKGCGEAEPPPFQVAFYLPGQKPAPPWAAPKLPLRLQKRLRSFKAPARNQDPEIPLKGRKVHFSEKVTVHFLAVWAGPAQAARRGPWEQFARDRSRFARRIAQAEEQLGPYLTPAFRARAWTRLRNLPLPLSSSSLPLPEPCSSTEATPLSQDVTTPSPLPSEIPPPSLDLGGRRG

Regarding `O=C(CSC1c2ccccc2-c2ccccc21)N/N=C/c1ccccc1O`, the IC50 result at PEG-3 [1] was “inactive”. In addition, the IC50 was 3.04 µM in the test with PEG-3 [2] (setting [4]); > 100 µM in the test on PEG-3 [2] (setting [5]); 69.5 µM (inactive) in the test with Rat fibroblasts (CREF) (mean of runs); > 100 µM in the test on Rat fibroblasts (CREF) (setting [4]); 38.9 µM in the test with Rat fibroblasts (CREF) (setting [5]); > 100 µM with GAPDH (setting [4]). In addition, the IC50 was > 100 µM in the test on GAPDH (setting [5]) and > 100 µM (inactive) in test [3].
On to `CC(C)CC1C(=O)N(Cc2cn(Cc3ccco3)nn2)CCS(=O)(=O)N1Cc1ccc(-c2ccc(F)cc2)cc1` (centres undefined), for which the concentration for half-maximal inhibition (IC50) was 8.24 µM at PEG-3 [1]; 10.4 µM in the test with PEG-3 [2] (setting [4]); 6.09 µM in the test on PEG-3 [2] (setting [5]); 67.5 µM (inactive) in the test with Rat fibroblasts (CREF) (mean of runs); > 100 µM in the test with Rat fibroblasts (CREF) (setting [4]); 34.9 µM with Rat fibroblasts (CREF) (setting [5]). Also, the 50% inhibitory concentration (IC50) in the test on GAPDH (setting [4]) was > 100 µM; in the test on GAPDH (setting [5]) it was 47.1 µM. The IC50 entry in test [3] is “inactive”.
`COc1cccc(/C=N/NC(=O)c2c(C)nc3ccc(Cl)cn23)c1O`: the IC50 at PEG-3 [1] was 0.754 µM; in the test with PEG-3 [2] (setting [4]), 0.994 µM; with PEG-3 [2] (setting [5]) it was 0.513 µM; in the test on Rat fibroblasts (CREF) (mean of runs) it was 69.6 µM (inactive); in the test on Rat fibroblasts (CREF) (setting [4]), > 100 µM; in the test on Rat fibroblasts (CREF) (setting [5]), 39.3 µM. Moreover, the IC50 was > 100 µM in the test with GAPDH (setting [4]), > 100 µM in the test with GAPDH (setting [5]) and > 100 µM (inactive) in test [3].
Consider `COc1cccc2c1C(=O)c1c(O)c3c(c(O)c1C2=O)CC(O)(C(C)=NNC(=O)c1ccc(Cl)c(Cl)c1)CC3OC1CC(N)C(O)C(C)O1` (centres undefined), for which the concentration for half-maximal inhibition (IC50) at PEG-3 [1] was 0.954 µM; in the test on PEG-3 [2] (setting [4]), 1.43 µM; with PEG-3 [2] (setting [5]), 0.476 µM; with Rat fibroblasts (CREF) (mean of runs) it was 0.588 µM; in the test with Rat fibroblasts (CREF) (setting [4]), 0.717 µM; with Rat fibroblasts (CREF) (setting [5]) it was 0.46 µM. Moreover, the IC50 with GAPDH (setting [4]) was 3.35 µM; in the test with GAPDH (setting [5]) it was 11 µM; in test [3], 7.16 µM.
Regarding `Cc1ccc(OCC(=O)c2cc(C)n(Cc3ccco3)c2C)c([N+](=O)[O-])n1`, the IC50 was 6.81 µM at PEG-3 [1]; 6.5 µM with PEG-3 [2] (setting [4]); 7.13 µM with PEG-3 [2] (setting [5]); > 100 µM (inactive) with Rat fibroblasts (CREF) (mean of runs); > 100 µM in the test with Rat fibroblasts (CREF) (setting [4]); > 100 µM in the test on Rat fibroblasts (CREF) (setting [5]). Moreover, the values for the IC50 (in the test with GAPDH (setting [4]); in the test with GAPDH (setting [5]); in test [3]) were 7.31 µM, 18.7 µM and 13 µM, respectively.
As for `CCCn1nc(C(=O)Nc2nc(-c3ccccn3)cs2)c2ccccc2c1=O`, the IC50 at PEG-3 [1] was 7.73 µM; with PEG-3 [2] (setting [4]), 7.15 µM; in the test on PEG-3 [2] (setting [5]) it was 8.31 µM; in the test on Rat fibroblasts (CREF) (mean of runs), > 100 µM (inactive); with Rat fibroblasts (CREF) (setting [4]), > 100 µM; in the test on Rat fibroblasts (CREF) (setting [5]), > 100 µM. The 50% inhibitory concentration (IC50) was > 100 µM in the test on GAPDH (setting [4]) and 80.9 µM with GAPDH (setting [5]). In test [3], the IC50 entry is “inactive”.
As to `CCCCCCCNC(=O)C1(CC2CC(c3cccc(Br)c3)=NO2)CCNCC1` (centres undefined), the IC50 was 7.4 µM at PEG-3 [1]; 8.05 µM in the test on PEG-3 [2] (setting [4]); 6.76 µM in the test on PEG-3 [2] (setting [5]); 16.5 µM in the test with Rat fibroblasts (CREF) (mean of runs); 16.1 µM in the test with Rat fibroblasts (CREF) (setting [4]); 16.9 µM with Rat fibroblasts (CREF) (setting [5]). Further, the half-inhibitory concentration (IC50) in the test with GAPDH (setting [4]) was 13.5 µM; in the test on GAPDH (setting [5]) it was 17.3 µM; in test [3] it was 15.4 µM.
In the case of `O=C(O)c1ccc(N/N=C/c2ccc(OC(=O)c3cccc(Cl)c3)cc2)cc1`, the IC50 at PEG-3 [1] was 9.61 µM; with PEG-3 [2] (setting [4]) it was 6.27 µM; in the test with PEG-3 [2] (setting [5]), 12.9 µM; in the test on Rat fibroblasts (CREF) (mean of runs), > 100 µM (inactive); in the test on Rat fibroblasts (CREF) (setting [4]), > 100 µM; in the test with Rat fibroblasts (CREF) (setting [5]), > 100 µM. For the same compound, the values for the IC50 (with GAPDH (setting [4]); with GAPDH (setting [5]); in test [3]) were 0.554 µM, 5.92 µM and 3.23 µM, respectively.
Regarding `CN1OC[C@@H]2CN(S(=O)(=O)c3cccc(C(F)(F)F)c3)[C@H](c3ccc(-c4cc5ccccc5o4)cc3)C[C@@H]21`, the IC50 was 9.9 µM at PEG-3 [1]; 18.7 µM in the test on PEG-3 [2] (setting [4]); 1.06 µM in the test on PEG-3 [2] (setting [5]); > 100 µM (inactive) with Rat fibroblasts (CREF) (mean of runs); > 100 µM in the test on Rat fibroblasts (CREF) (setting [4]); > 100 µM in the test with Rat fibroblasts (CREF) (setting [5]). In addition, the IC50 in the test on GAPDH (setting [4]) stood at 44.3 µM; with GAPDH (setting [5]), 37.8 µM. Further, the IC50 entry in test [3] is “inactive”.
As to `CCc1ccc(/C=C2\SC(=S)N(CCCC(=O)NC3=NCCS3)C2=O)cc1`, the half-inhibitory concentration (IC50) is 1.21 µM at PEG-3 [1]; 1.28 µM in the test on PEG-3 [2] (setting [4]); 1.14 µM in the test with PEG-3 [2] (setting [5]); > 100 µM (inactive) in the test on Rat fibroblasts (CREF) (mean of runs); > 100 µM in the test with Rat fibroblasts (CREF) (setting [4]); > 100 µM in the test with Rat fibroblasts (CREF) (setting [5]). The IC50 with GAPDH (setting [4]) is 4.61 µM; in the test on GAPDH (setting [5]) it was 4.45 µM; in test [3], 4.53 µM.
Turning to `O=C(c1ccco1)N1CCN(C(c2ccccc2Cl)c2nnnn2Cc2cccs2)CC1` (centres undefined), the IC50 result (on PEG-3 [1]; in test [3]) was “inactive” in each case. Further, the IC50 was 3.28 µM with PEG-3 [2] (setting [4]); > 100 µM in the test with PEG-3 [2] (setting [5]); > 100 µM (inactive) in the test on Rat fibroblasts (CREF) (mean of runs); > 100 µM in the test with Rat fibroblasts (CREF) (setting [4]); > 100 µM in the test with Rat fibroblasts (CREF) (setting [5]); 14.5 µM in the test with GAPDH (setting [4]). Besides, the 50% inhibitory concentration (IC50) with GAPDH (setting [5]) was determined as 58.7 µM.

Usually IC50 stands for the concentration at which inhibition is half-maximal.
